Measurements: ChEMBL document CHEMBL1795220, “Antifungal quinazolinones from marine-derived Bacillus cereus and their preparation” (2011)
Converted amounts (≈) assume the structure as drawn.

System: Candida albicans
Assay: Antifungal activity against Candida albicans after 12 hrs by agar dilution method
Assay type: functional

Row | SMILES | MIC [µM]
1 | CCCCC(CC)C1NC(=O)c2ccccc2N1 (racemic) | 10.1 (≈ 2.49 µg/mL)
2 | CCCC[C@@H](CC)C1NC(=O)c2ccccc2N1 (mixture of isomers) | 2.5
3 | Cc1nc2ccccc2c(=O)[nH]1 | 15.6 (≈ 2.5 µg/mL)
4 | Oc1nc(Cc2ccccc2)nc2ccccc12 | 10.6 (≈ 2.5 µg/mL)
5 | CCCC[C@H](CC)c1nc2ccccc2c(=O)[nH]1 | 1.3 (≈ 0.318 µg/mL)
6 | CCCC[C@H](CC)C1NC(=O)c2ccccc2N1 (mixture of isomers) | 5
7 | CCCCC(CC)c1nc2ccccc2c(=O)[nH]1 (racemic) | 10.2 (≈ 2.49 µg/mL)
8 | CC(=O)N1CCN(c2ccc(OCC3COC(Cn4ccnc4)(c4ccc(Cl)cc4Cl)O3)cc2)CC1 (centres undefined) [KETOCONAZOLE] | 0.2 (≈ 0.106 µg/mL)
9 | CCCC[C@@H](CC)c1nc2ccccc2c(=O)[nH]1 | 2.5 (≈ 0.611 µg/mL)
